According to the NIST ThermoML archive (doi:10.1016/j.fluid.2008.06.004):
Where “and” joins values, the source holds several entries; their conditions need not be identical. Equal entries are not always repeated. Numbers after ± are expanded uncertainties.

Experiments:
[1] = refractive index (Na D-line) (dimensionless); conditions: 298.15 K; 101.33 kPa; Liquid; Standard Abbe refractometry
[2] = Liquid; for mass density: 298.15 K, 101.33 kPa

CCC(C)=O [butanone]
Conditions | mass density [kg/m3] | refractive index
[1] | – | 1.37614 ± 0.00068
[2] | 799.62 ± 0.35 | –

[2], Ebulliometric method (Recirculating still)
Conditions | vapor or sublimation pressure
308.22 K | 18.73 ± 0.43 kPa
309.55 K | 20 ± 0.4 kPa
310.48 K | 20.76 ± 0.42 kPa
312.56 K | 22.74 ± 0.44 kPa
313.8 K | 24.01 ± 0.46 kPa
316.39 K | 26.73 ± 0.47 kPa
318.16 K | 28.71 ± 0.53 kPa
319.63 K | 30.72 ± 0.56 kPa
321.2 K | 32.71 ± 0.58 kPa
324.08 K | 36.72 ± 0.6 kPa
326.86 K | 40.72 ± 0.64 kPa
329.31 K | 44.73 ± 0.72 kPa
331.49 K | 48.73 ± 0.77 kPa
333.61 K | 52.73 ± 0.8 kPa
335.64 K | 56.74 ± 0.84 kPa
337.53 K | 60.73 ± 0.88 kPa
339.37 K | 64.72 ± 0.93 kPa
341.07 K | 68.73 ± 0.98 kPa
342.7 K | 72.72 ± 1 kPa
344.29 K | 76.74 ± 1.1 kPa
345.74 K | 80.72 ± 1.1 kPa
347.19 K | 84.73 ± 1.1 kPa
348.59 K | 88.73 ± 1.2 kPa
349.95 K | 92.74 ± 1.2 kPa
350.49 K | 94.41 ± 1.3 kPa
351.4 K | 97.29 ± 1.3 kPa
352.68 K | 101.32 ± 1.3 kPa and 101.3 ± 1.3 kPa
354.04 K | 105.95 ± 1.4 kPa
355.29 K | 110.24 ± 1.4 kPa
356.39 K | 114.07 ± 1.4 kPa
357.91 K | 119.51 ± 1.5 kPa
359.12 K | 124.08 ± 1.5 kPa
360.32 K | 128.72 ± 1.6 kPa
361.22 K | 132.46 ± 1.6 kPa
362.08 K | 135.91 ± 1.6 kPa

CCO [ethanol]
Conditions | mass density [kg/m3] | refractive index
[1] | – | 1.35939 ± 0.00068
[2] | 786.47 ± 0.5 | –

[2], Ebulliometric method (Recirculating still)
Conditions | vapor or sublimation pressure [kPa]
315.41 K | 20 ± 0.9
351.46 K | 101.3 ± 0.9

CCCO [propan-1-ol]
Conditions | mass density [kg/m3] | refractive index
[1] | – | 1.38305 ± 0.00068
[2] | 799.44 ± 0.23 | –

[2]
Conditions | vapor or sublimation pressure [kPa]
332.67 K | 20 ± 0.9
370.21 K | 101.3 ± 0.9

CC(C)O [propan-2-ol]
Conditions | mass density [kg/m3] | refractive index
[1] | – | 1.37497 ± 0.00068
[2] | 780.75 ± 0.24 | –

[2], Ebulliometric method (Recirculating still)
Conditions | vapor or sublimation pressure [kPa]
319.8 K | 20 ± 0.9
355.4 K | 101.3 ± 0.9
